Measurements from US20070037253A1, “Methods and compositions for treatment of arthritis and cancer” (priority 2003, published 2007).
“Also recorded” adds a separate entry of the source. Where a SMILES comes first, the peptide text is derived from it.

How the values were obtained:
Format in all cases: cell-based
[1] = tested on: TIMP-1 gene transcript; assay: QRT-PCR relative mRNA expression in IL-1β-stimulated rabbit synovial fibroblasts; details: 5 μM peptide, IL-1β-induced
Excerpt: (§1) FIG. 5 is a view of the effect of peptide on the relative expression of MMP and sPLA2 genes. QRT-PCR was used for assessing relative mRNA expression levels of IL-1β-stimulated rabbit synovial fibroblast cells in the presence and absence of the candidate lead peptide PIP [59-67] dimer. The amount of each mRNA was obtained by quantitative RT-PCR. The relative levels of gene expression were normalized to the housekeeping gene (GAPDH). […] Values are expressed as ±S.E.
(§2) RNA isolation of cultured FLSCs: FLSCs were grown to 80% confluence on 12-well culture dishes and starved in a serum-free medium with 5 μM PIP [59-67] dimer for 2 h. The cells were then stimulated with 5 ng/mL IL-1β (Recombinant human, Chemicon, USA.) for 24 h, washed with cold PBS and total RNA isolated from peptide-treated (n=3) and untreated (n=3) FLSCs using RNeasy® mini kit. The RNA samples were subsequently treated with RNase-free Dnase-I at room temperature for 20 min and stored at −80° C. until use. The quality and quantity of extracted RNA was determined by spectrophotometry (Bio-Rad, USA). All RNA samples used for QRT-PCR experiments were of highest purity with A260/A280 ratios of 1.9-2.1. The integrity and relative contamination with residual genomic DNA was assessed by 1% denaturing agarose gel electrophoresis.
(§3) Quantitative Real Time RT-PCR (LightCycler): Quantitative fluorescence-based real-time PCR was carried out according to the manufacturer's instructions using the LightCycler system with LightCycler FastStart DNA Master^PLUS SYBR Green I kit (Roche Diagnostics, Germany) as an independent method for assessing relative gene expression. Reverse Transcription (RT) of RNA and QRT-PCR were performed as follows: single stranded cDNA was generated from 3 μg of total RNA, 200 μM nucleotides, 500 units Superscript II reverse transcriptase (Invitrogen) and 1.5 μM oligo(dT)15 primers in 50 μL reactions. Reverse transcription was stopped after 1 hr by heating to 95° C. for 5 min. The primers were designed by Primer3 software: http://bioinformatics.weizmann.ac.il/cgi-bin/primer/primer3.cgi and subsequently checked for specificity using BLAST: http://www.ncbi.nlm.nih.gov/genome/seq/HsBlast.htmL. All primers and probes were synthesized by 1st BASE Pvt. Ltd., Singapore. The expression of GAPDH was used as an internal calibrator for equal RNA loading and to normalize relative expression data for all other genes analyzed. The copy ratio of each analyzed cDNA was determined as the mean of 3 experiments. The real-time quantitative RT-PCR data were quantified using relative quantification (2^−ΔΔCT) method as described [Livak, K. J, and Schmittgen, T. D. (2001) Analysis of relative gene expression data using real-time quantitative PCR and the 2(-Delta Delta C(T)) method.

[2] = tested on: MMP-9 gene transcript; assay: as above
Excerpt: as §1, §2, §3

[3] = tested on: MMP-1 gene transcript; assay: as above
Excerpt: as §1, §2, §3

[4] = target: T1, secreted MMP-9 (Oryctolagus cuniculus, UniProt P41246); assay: Secreted gelatinase activity of IL-1β-stimulated rabbit synovial fibroblasts treated with peptide (FIG. 4B); details: cells treated with 1-10 μM peptide, IL-1β stimulation
T1 construct: endogenous in cells; host or cells: HIG-82 rabbit fibroblast-like synoviocytes (ATCC CRL-1832)
T1 sequence (P41246 107-707): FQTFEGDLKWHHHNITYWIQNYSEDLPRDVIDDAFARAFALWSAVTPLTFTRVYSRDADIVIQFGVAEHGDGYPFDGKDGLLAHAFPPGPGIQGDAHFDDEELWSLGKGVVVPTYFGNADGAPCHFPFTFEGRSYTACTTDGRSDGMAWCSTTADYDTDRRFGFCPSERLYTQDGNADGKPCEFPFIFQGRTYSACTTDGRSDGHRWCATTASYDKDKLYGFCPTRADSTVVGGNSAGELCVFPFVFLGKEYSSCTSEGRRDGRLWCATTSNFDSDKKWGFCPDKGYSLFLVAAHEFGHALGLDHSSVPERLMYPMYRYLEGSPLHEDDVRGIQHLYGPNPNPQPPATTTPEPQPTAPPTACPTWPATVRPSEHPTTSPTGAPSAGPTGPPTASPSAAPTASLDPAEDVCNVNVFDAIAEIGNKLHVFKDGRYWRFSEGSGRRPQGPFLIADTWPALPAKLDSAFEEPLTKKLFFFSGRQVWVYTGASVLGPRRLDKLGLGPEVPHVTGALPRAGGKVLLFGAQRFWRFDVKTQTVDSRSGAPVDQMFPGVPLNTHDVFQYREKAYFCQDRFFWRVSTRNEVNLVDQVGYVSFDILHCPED
Procedure: Gelatinase activity in the supernatants from cells induced with IL-1β (5 ng) for 48 h was analyzed by gelatin zymography. (A) Supernatants (activated with final 1 mM APMA at 30° C. for 30 min) were pre-incubated with various inhibitors. (5 μM peptides or 1-2 μM Calbiochem MMP inhibitor II) for 1 h at 25° C. prior to zymographic analyses—Lane 1, without activation (no inhibitor); Lane 2, with activation (no inhibitor); Lanes 3-8, with activation plus inhibitor: 3, P-NT-II; 4, PIP [59-67] monomer; 5, PIP [57-67] dimer; 6, PIP [59-67] dimer; 7 and 8, positive control MMP Inhibitor II (Calbiochem) at 1 and 2 μM concentrations. (B) Rabbit synovial fibroblasts were stimulated by IL-1β in the presence or absence of 1-10 μM of PIP [59-67] dimer for 48 h. Culture supernatants were concentrated by centrifugation (Centricon centrifugal filter devices, M.W. cutoff 30,000) and activated with APMA (1 mM final) before measurement of gelatinase activity by gelatin zymography. Lanes: 1 (−peptide−APMA); 2 (−peptide+APMA); 3 (+1 μM peptide+APMA); 4 (+5 μM peptide+APMA); 5 (+7.5 μM peptide+APMA); 6 (+10 μM peptide+APMA).
Gelatin zymography: human synovial fluid, purified human recombinant MMP-2 and -9 or APMA-activated concentrated culture supernatant samples (10 μL) was mixed (1:1) with Laemmli sample buffer, loaded on 4% acrylamide stacking gel and electrophoresed (120 V) at 4° C. on a 10% acrylamide-resolving minigel containing 0.1% gelatin. After electrophoresis for 1 h, the gels were soaked in 2.5% Triton X-100 on a shaker for 1 h, changing the solution after 30 min, to eliminate SDS. After overnight incubation in zymogen activation buffer [50 mM Tris-HCl, pH 7.5, containing 10 mM CaCl2 and 5 mM ZnCl2] at 37° C., the gels were rinsed in distilled water, and stained for 3 hr with […], after which clear bands of digested gelatin were clearly visible. The gels were briefly rinsed in distilled water and scanned by the Bio-Rad GS-710 Calibrated Imaging Densitometer.
FLSC culture and inhibition of extracellular MMP activity: All experiments were performed on HIG-82 rabbit fibroblast-like synoviocytes (FLSCs) obtained from American Type Culture Collection (Manassas, Va.; catalogue No. CRL-1832). FLSCs were grown in Ham's F-12 medium containing 10% fetal bovine serum (FBS) and 1% penicillin/streptomycin, as recommended by the supplier. For experimental purposes, FLSCs were seeded into 12-well plates, grown to near confluence, and then serum starved (Ham's F-12 without FBS or penicillin/streptomycin) for 16 h. […] After activation with APMA (1 mM final concentration), the samples were measured for MMP-1 activity using BIOMOL AK-404 QuantiZyme Assay system, and for MMP-2 and -9 activities by gelatin zymography.

[5] = 5 μM peptide, IL-1β-induced, normalized to GAPDH
[6] = IL-1β-stimulated rabbit synovial fibroblasts in culture

## CC[C@H](C)[C@H](NC(=O)[C@H](CC(=O)O)NC(=O)[C@@H](N)C(C)C)C(=O)N[C@@H](Cc1c[nH]cn1)C(=O)N[C@H](C(=O)N[C@@H](Cc1c[nH]c2ccccc12)C(=O)N[C@@H](CC(=O)O)C(=O)NCC(=O)N[C@H](C(=O)N[C@H](C(=O)N[C@@H](CC(=O)O)C(=O)N[C@H](C(=O)N[C@@H](Cc1c[nH]cn1)C(=O)N[C@H](C(=O)N[C@@H](Cc1c[nH]c2ccccc12)C(=O)N[C@@H](CC(=O)O)C(=O)NCC(=O)N[C@H](C(=O)O)C(C)C)C(C)C)[C@@H](C)CC)C(C)C)C(C)C)C(C)C [PIP [59-67] dimer] (H-VDIHVWDGVVDIHVWDGV-OH; N-terminus and C-terminus assumed)
[1]
  TIMP-1 mRNA expression level: significantly suppressed
[2]; [5]
  MMP-9 mRNA expression level: significantly inhibited; also recorded: significantly suppressed
[2]; [6]
  decrease of MMP-9 mRNA expression: > 1 fold
[3]; [5]
  MMP-1 mRNA expression level: significantly inhibited; also recorded: significantly suppressed
[3]; [6]
  decrease of MMP-1 mRNA expression: > 1 fold
[4]
  activity of secreted MMP-9: failed to inhibit
[4]; listed as dimerized peptide
  activity of secreted MMP-9: less marked
